Test system: VEGF-induced vascular leakage
Assay: VEGF-induced vascular leakage in rabbit eyes
Format: in vivo
Conditions: single injection, day 60, FIG. 4G

aflibercept
activity against VEGF-induced vascular leakage: no longer showed activity
